{"source": "paper PMC6783924", "about": "“Alkaloid Lindoldhamine Inhibits Acid-Sensing Ion Channel 1a and Reveals Anti-Inflammatory Properties” (Toxins, 2019)", "target": "T1, acid-sensing ion channel isoform 1a (ASIC1a) (Rattus norvegicus, UniProt P55926)", "T1 construct": "gene Asic1", "T1 sequence (P55926 1-526)": "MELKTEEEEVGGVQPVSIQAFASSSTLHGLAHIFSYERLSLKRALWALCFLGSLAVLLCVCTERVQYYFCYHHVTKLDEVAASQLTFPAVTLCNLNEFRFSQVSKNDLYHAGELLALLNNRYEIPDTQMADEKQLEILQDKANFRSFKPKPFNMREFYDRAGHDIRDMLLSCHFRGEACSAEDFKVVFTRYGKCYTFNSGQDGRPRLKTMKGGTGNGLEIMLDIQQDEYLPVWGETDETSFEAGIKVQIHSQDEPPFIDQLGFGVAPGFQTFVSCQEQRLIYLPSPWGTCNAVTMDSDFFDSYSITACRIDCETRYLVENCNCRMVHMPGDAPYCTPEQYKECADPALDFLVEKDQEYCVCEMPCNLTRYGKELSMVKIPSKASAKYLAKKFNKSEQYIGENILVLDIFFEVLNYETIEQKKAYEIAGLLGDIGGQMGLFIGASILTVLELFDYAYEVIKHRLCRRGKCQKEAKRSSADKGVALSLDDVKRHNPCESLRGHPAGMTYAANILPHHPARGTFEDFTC", "assay": "two-electrode voltage clamp, Xenopus laevis oocytes expressing rat ASIC1a, pH […] stimulus from pH […]", "type": "cell-based", "conditions": "read-out: pH 6.85", "data": [{"compound": "COc1cc2c(cc1O)C(Cc1ccc(O)c(Oc3ccc(C[C@@H]4NCCc5cc(OC)c(O)cc54)cc3)c1)NCC2", "note": "(stereo partly shown) [LIN, lindoldhamine]", "values": [{"measurement": "IC50", "result": "9 ± 0.3", "unit": "µM"}]}]}
